# Experimental data as given in ChEMBL document CHEMBL3046385, “Synthesis and bioactivity of novel 3-(1-hydroxyethylidene)-5-substituted-pyrrolidine-2,4-dione derivatives” (Chin Chem Lett, 2012).
# Tested on: Echinochloa crus-galli
# Assay: Herbicidal activity against Echinochloa crus-galli (barnyard grass) assessed as root inhibition at 100 mg/l
# Assay type: functional
row,Structure (SMILES),inhibition at 100 µg/mL [%]
1,C/C(O)=C1/C(=O)NC(Cc2ccc([N+](=O)[O-])cc2)C1=O (centres undefined),64.3
2,C/C(O)=C1/C(=O)NC(C/C=C/c2ccccc2)C1=O (centres undefined),54
3,C/C(O)=C1/C(=O)NC(CC(=O)c2ccccc2)C1=O (centres undefined),47.9
4,C/C(O)=C1/C(=O)NC(Cc2ccc(Cl)cc2)C1=O (centres undefined),49.6
5,COc1ccc(C(=O)CC2NC(=O)/C(=C(/C)O)C2=O)cc1 (centres undefined),61.5
6,C/C(O)=C1/C(=O)NC(Cc2ccc(Cl)cc2Cl)C1=O (centres undefined),31.6
7,CCCCC1NC(=O)/C(=C(/C)O)C1=O (centres undefined),38.5
8,CCCCCCC1NC(=O)/C(=C(/C)O)C1=O (centres undefined),47.8
9,C/C(O)=C1/C(=O)NC(Cc2ccccc2Cl)C1=O (centres undefined),37.3
10,COc1ccc(CC2NC(=O)/C(=C(/C)O)C2=O)cc1 (centres undefined),32.8

# Tested on: Echinochloa crus-galli
# Assay: Herbicidal activity against Echinochloa crus-galli (barnyard grass) assessed as stalk inhibition
# Assay type: functional, organism-based
row,Structure (SMILES),EC50 [µg/mL]
1,COc1ccc(C(=O)CC2NC(=O)/C(=C(/C)O)C2=O)cc1 (centres undefined),94.4
2,CCCCCCC1NC(=O)/C(=C(/C)O)C1=O (centres undefined),72.7

# Tested on: Brassica rapa subsp. oleifera
# Assay: Herbicidal activity against Brassica rapa subsp. oleifera assessed as root inhibition
# Assay type: functional, organism-based
row,Structure (SMILES),EC50 [µg/mL]
1,C/C(O)=C1/C(=O)NC(C/C=C/c2ccccc2)C1=O (centres undefined),39.2
2,C/C(O)=C1/C(=O)NC(Cc2ccc(Cl)cc2)C1=O (centres undefined),25.5

# Tested on: Brassica rapa subsp. oleifera
# Assay: Herbicidal activity against Brassica rapa subsp. oleifera assessed as root inhibition at 100 mg/l
# Assay type: functional
row,Structure (SMILES),inhibition at 100 µg/mL [%]
1,C/C(O)=C1/C(=O)NC(Cc2ccc([N+](=O)[O-])cc2)C1=O (centres undefined),45.7
2,C/C(O)=C1/C(=O)NC(C/C=C/c2ccccc2)C1=O (centres undefined),90.4
3,C/C(O)=C1/C(=O)NC(CC(=O)c2ccccc2)C1=O (centres undefined),66.9
4,C/C(O)=C1/C(=O)NC(Cc2ccc(Cl)cc2)C1=O (centres undefined),89.7
5,COc1ccc(C(=O)CC2NC(=O)/C(=C(/C)O)C2=O)cc1 (centres undefined),45.9
6,C/C(O)=C1/C(=O)NC(Cc2ccc(Cl)cc2Cl)C1=O (centres undefined),59.3
7,CCCCC1NC(=O)/C(=C(/C)O)C1=O (centres undefined),46.3
8,CCCCCCC1NC(=O)/C(=C(/C)O)C1=O (centres undefined),43.1
9,C/C(O)=C1/C(=O)NC(Cc2ccccc2Cl)C1=O (centres undefined),41.8
10,COc1ccc(CC2NC(=O)/C(=C(/C)O)C2=O)cc1 (centres undefined),62.9

# Tested on: Echinochloa crus-galli
# Assay: Herbicidal activity against Echinochloa crus-galli (barnyard grass) assessed as stalk inhibition at 100 mg/l
# Assay type: functional
row,Structure (SMILES),inhibition at 100 µg/mL [%]
1,C/C(O)=C1/C(=O)NC(Cc2ccc([N+](=O)[O-])cc2)C1=O (centres undefined),41.6
2,C/C(O)=C1/C(=O)NC(C/C=C/c2ccccc2)C1=O (centres undefined),42.5
3,C/C(O)=C1/C(=O)NC(CC(=O)c2ccccc2)C1=O (centres undefined),36.4
4,C/C(O)=C1/C(=O)NC(Cc2ccc(Cl)cc2)C1=O (centres undefined),37.8
5,COc1ccc(C(=O)CC2NC(=O)/C(=C(/C)O)C2=O)cc1 (centres undefined),62.6
6,C/C(O)=C1/C(=O)NC(Cc2ccc(Cl)cc2Cl)C1=O (centres undefined),19.1
7,CCCCC1NC(=O)/C(=C(/C)O)C1=O (centres undefined),32.3
8,CCCCCCC1NC(=O)/C(=C(/C)O)C1=O (centres undefined),66.9
9,C/C(O)=C1/C(=O)NC(Cc2ccccc2Cl)C1=O (centres undefined),35.7
10,COc1ccc(CC2NC(=O)/C(=C(/C)O)C2=O)cc1 (centres undefined),41.2
